Measured values from patent US12559496B2, “Imidazopyrimidines as modulators of IL-17” (Janssen Pharmaceutica NV, priority 2020, dated 2026).

How the values were obtained:
[1] = target: IL-17A(FLAG-Tagged): IL-17RA(His-Tagged) (Homo sapiens, UniProt Q16552, K93Q); assay: IL-17A(FLAG-Tagged): IL-17RA(His-Tagged) Binding Disruption Eu-HTRF Assay; conditions: disruption of IL-17A/IL-17RA binding; simple average if tested more than once
From the text: IL-17A(FLAG-Tagged): IL-17RA(His-Tagged) Binding Disruption Eu-HTRF Assay
An antibody directed against the FLAG tag of IL-17A (SEQ ID NO: 1) is labeled with the HTRF donor chromophore (Europium-cryptate). IL-17A is present as a dimer that is “locked into” this quaternary structure due to the formation of loop-spanning […] disulfide bridges. The construct of IL-17RA used in the assay excludes the […] portion of the receptor and is fused to a C-terminal 10×His tag (SEQ ID NO:2). An antibody directed against the His tag of the IL-17RA chimera is labeled with the HTRF acceptor chromophore (“D2”). The fluorescence-resonance energy transfer (FRET) depends on the vicinity of the donor chromophore to the acceptor, and interruption of the binding between the IL-17A and IL-17RA causes the reduction/loss of FRET. Therefore, this assay allows to evaluate the compound effect on the binding IL-17A and IL-17RA by monitoring the fluorescence intensity of donor vs acceptor. The assay is run as described below.
40 nL of 2-fold serial diluted compound solution for total 22 dilution points is added into each well of a 1536-well, white, low-volume, non-binding plate (Greiner #782904), then 2 μL of FLAG tagged IL-17A at 2× final concentration (2.5 nM) in solution of PBS+0.01% Triton-X100 is added to each well. The assay plate is briefly centrifuged then incubated for 1 h at rt. A mixed solution is prepared containing 2×5 nM 10HIS×IL-17RA, 2×2.5 nM Eu-anti-FLAG (CISBIO), 2×5 nM D2-anti-HIS (CISBIO) in PBS+0.01% Triton-X100+200 mM Potassium Fluoride (Sigma 60238) and 2 μL of mix is added to each well of the assay plate. The plate is briefly centrifuged then incubated for 2 h at rt. The HTRF intensities at the wavelength of donor (620 nm) and acceptor (665 nm) are measured using BMG Pherastar. The ratio between intensities at two wavelengths is calculated and plotted against the compound concentration and the data is fitted to a one-site competition model to yield IC50 of the compound.

[2] = system: IL-17A-induced G-CSF production in human normal keratinocytes (NHK); assay: NHK Assay: IL-17A-induced G-CSF production in human normal keratinocytes; format: cell-based; conditions: 24 h, IL-17A 5 ng/mL, 5% FBS, simple average if tested more than once
Experimental: IL-17A acts directly on keratinocytes through binding to dimeric receptor IL-17RA/RC and drives the production of a number of inflammatory mediators known to be elevated in psoriasis lesional tissue. IL-17A small molecule inhibitors that block the IL-17A to interact with IL-17R would inhibit the IL-17A signaling in its targeted cells such as keratinocytes. The compound functional activity is evaluated for its impact on IL-17A-induced G-CSF production in human normal keratinocytes (NHK).
Adult normal human keratinocytes are cultured in keratinocyte growth medium (Lonza) in a flask till reaching ˜ 90% confluence, then cells are transferred to a 384-well plate at density of 3000-4000 cell/well. Recombinant human IL-17A (Gibco PHC9174) is pre-incubated with titrated compound or DMSO for 1 h at rt then added to the cell culture plate. The final concentration of IL-17A is 5 ng/mL and DMSO is 0.2%, in the culture containing 5% FBS. Cells are cultured/treated for 24 h at 37° C. Supernatants are collected and G-CSF production is measured through HTRF technology using Human G-CSF Kit (CisBio). G-CSF concentration was extrapolated from the standard curve and IC50 is determined using GraphPad Prism. Cell viability is also evaluated using CellTiter-Glo kit (Promega) and effect of compound on cell viability is compared to DMSO control.

Chain of UniProt Q16552 (Q16552 with tags, fused parts or gaps K93Q): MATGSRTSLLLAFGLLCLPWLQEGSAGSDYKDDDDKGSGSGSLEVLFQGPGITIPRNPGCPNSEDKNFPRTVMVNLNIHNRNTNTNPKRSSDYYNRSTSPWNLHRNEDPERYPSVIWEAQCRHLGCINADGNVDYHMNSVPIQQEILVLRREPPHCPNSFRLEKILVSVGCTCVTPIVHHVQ

SMILES	IC50 [1] [nM]	IC50 ([2]; Homo sapiens, Keratinocyte) [nM]	IC50 [2] [nM]
O=C(CC1CC(F)(F)C1)N[C@@H](c1ccn2cc([C@@H](NC(=O)[C@@H]3C[C@H]3C(F)(F)F)C3CCC(F)(F)CC3)nc2n1)C1CC1 (relative stereo) [Example 11, trans-(1S*,2S*)—N—((S)-(7-((R)-Cyclopropyl(2-(3,3-difluorocyclobutyl)acetamido)methyl)imidazo[1,2-a]pyrimidin-2-yl)(4,4-difluorocyclohexyl)methyl)-2-(trifluoromethyl)cyclopropane-1-carboxamide]	660	540	
O=C(CC1CC(F)(F)C1)N[C@@H](c1ccn2cc([C@@H](NC(=O)[C@H]3C[C@@H]3C(F)(F)F)C3CCC(F)(F)CC3)nc2n1)C1CC1 (relative stereo) [Example 12, trans-(1R*,2R*)—N—((S)-(7-((R)-Cyclopropyl(2-(3,3-difluorocyclobutyl)acetamido)methyl)imidazo[1,2-a]pyrimidin-2-yl)(4,4-difluorocyclohexyl)methyl)-2-(trifluoromethyl)cyclopropane-1-carboxamide]	6000	> 20000	
O=C(CCC(F)(F)F)NC(c1ccn2cc([C@@H](NC(=O)c3cnnn3CCC(F)(F)F)C3CCC(F)(F)CC3)nc2n1)C1CC1 (single isomer, unassigned) [Example 1, N—((S)-(7-((R*)-Cyclopropyl(4,4,4-trifluorobutanamido)methyl)imidazo[1,2-a]pyrimidin-2-yl)(4,4-difluorocyclohexyl)methyl)-1-(3,3,3-trifluoropropyl)-1H-1,2,3-triazole-5-carboxamide]	290		390
O=C(CCC(F)(F)F)NC(c1ccn2cc([C@@H](NC(=O)c3cnnn3CCC(F)(F)F)C3CCC(F)(F)CC3)nc2n1)C1CC1 (single isomer, unassigned) [Example 2, N—((S)-(7-((S*)-Cyclopropyl(4,4,4-trifluorobutanamido)methyl)imidazo[1,2-a]pyrimidin-2-yl)(4,4-difluorocyclohexyl)methyl)-1-(3,3,3-trifluoropropyl)-1H-1,2,3-triazole-5-carboxamide]	3700		6200
CC(CC(=O)N[C@H](c1ccn2cc([C@@H](NC(=O)c3ccnc(CC(F)(F)F)c3)C3CCC(F)(F)CC3)nc2n1)C1CC1)C(F)(F)F (single isomer, unassigned) [Example 3, N—((S)-(7-((S)-Cyclopropyl((R*)-4,4,4-trifluoro-3-methylbutanamido)methyl)imidazo[1,2-a]pyrimidin-2-yl)(4,4-difluorocyclohexyl)methyl)-2-(2,2,2-trifluoroethyl)isonicotinamide]	3100	640	
CC(CC(=O)N[C@H](c1ccn2cc([C@@H](NC(=O)c3ccnc(CC(F)(F)F)c3)C3CCC(F)(F)CC3)nc2n1)C1CC1)C(F)(F)F (single isomer, unassigned) [Example 4, N—((S)-(7-((S)-Cyclopropyl((S*)-4,4,4-trifluoro-3-methylbutanamido)methyl)imidazo[1,2-a]pyrimidin-2-yl)(4,4-difluorocyclohexyl)methyl)-2-(2,2,2-trifluoroethyl)isonicotinamide]	1800		1200
CC(CC(=O)N[C@@H](c1ccn2cc([C@@H](NC(=O)[C@@H]3C[C@H]3C(F)(F)F)C3CCC(F)(F)CC3)nc2n1)C1CC1)C(F)(F)F (single isomer, unassigned) [Example 5]	700	960	
CC(CC(=O)N[C@@H](c1ccn2cc([C@@H](NC(=O)[C@H]3C[C@@H]3C(F)(F)F)C3CCC(F)(F)CC3)nc2n1)C1CC1)C(F)(F)F (single isomer, unassigned) [Example 6]	2700	2100	
CC(CC(=O)N[C@H](c1ccn2cc([C@@H](NC(=O)c3conc3CCC(F)(F)F)C3CCC(F)(F)CC3)nc2n1)C1CC1)C(F)(F)F (single isomer, unassigned) [Example 7, N—((S)-(7-((S)-Cyclopropyl((S*)-4,4,4-trifluoro-3-methylbutanamido)methyl)imidazo[1,2-a]pyrimidin-2-yl)(4,4-difluorocyclohexyl)methyl)-3-(3,3,3-trifluoropropyl)isoxazole-4-carboxamide]	520		880
CC(CC(=O)N[C@H](c1ccn2cc([C@@H](NC(=O)c3conc3CCC(F)(F)F)C3CCC(F)(F)CC3)nc2n1)C1CC1)C(F)(F)F (single isomer, unassigned) [Example 8, N—((S)-(7-((S)-Cyclopropyl((R*)-4,4,4-trifluoro-3-methylbutanamido)methyl)imidazo[1,2-a]pyrimidin-2-yl)(4,4-difluorocyclohexyl)methyl)-3-(3,3,3-trifluoropropyl)isoxazole-4-carboxamide]	1100		6000
CC(CC(=O)N[C@H](c1ccn2cc([C@@H](NC(=O)c3conc3C3CC3)C3CCC(F)(F)CC3)nc2n1)C1CC1)C(F)(F)F (single isomer, unassigned) [Example 9, 3-Cyclopropyl-N—((S)-(7-((S)-cyclopropyl((S*)-4,4,4-trifluoro-3-methylbutanamido)methyl)imidazo[1,2-a]pyrimidin-2-yl)(4,4-difluorocyclohexyl)methyl)isoxazole-4-carboxamide]	1800		610
CC(CC(=O)N[C@H](c1ccn2cc([C@@H](NC(=O)c3conc3C3CC3)C3CCC(F)(F)CC3)nc2n1)C1CC1)C(F)(F)F (single isomer, unassigned) [Example 10, 3-Cyclopropyl-N—((S)-(7-((S)-cyclopropyl((R*)-4,4,4-trifluoro-3-methylbutanamido)methyl)imidazo[1,2-a]pyrimidin-2-yl)(4,4-difluorocyclohexyl)methyl)isoxazole-4-carboxamide]	4100		5800
CC(C)n1ncnc1C(=O)N[C@H](c1cn2ccc([C@H](NC(=O)CC(C)C(F)(F)F)C3CC3)nc2n1)C1CCC(F)(F)CC1 (single isomer, unassigned) [Example 17, N—((S)-(7-((R)-Cyclopropyl((S*)-4,4,4-trifluoro-3-methylbutanamido)methyl)imidazo[1,2-a]pyrimidin-2-yl)(4,4-difluorocyclohexyl)methyl)-1-isopropyl-1H-1,2,4-triazole-5-carboxamide]	220	1100	
CC(C)n1ncnc1C(=O)N[C@H](c1cn2ccc([C@H](NC(=O)CC(C)C(F)(F)F)C3CC3)nc2n1)C1CCC(F)(F)CC1 (single isomer, unassigned) [Example 18, N—((S)-(7-((R)-Cyclopropyl((R*)-4,4,4-trifluoro-3-methylbutanamido)methyl)imidazo[1,2-a]pyrimidin-2-yl)(4,4-difluorocyclohexyl)methyl)-1-isopropyl-1H-1,2,4-triazole-5-carboxamide]	580		2000
CC(CC(=O)N[C@@H](c1ccn2cc([C@@H](NC(=O)c3ncnn3CC3CC3)C3CCC(F)(F)CC3)nc2n1)C1CC1)C(F)(F)F (single isomer, unassigned) [Example 19, N—((S)-(7-((R)-Cyclopropyl((S*)-4,4,4-trifluoro-3-methylbutanamido)methyl)imidazo[1,2-a]pyrimidin-2-yl)(4,4-difluorocyclohexyl)methyl)-1-(cyclopropylmethyl)-1H-1,2,4-triazole-5-carboxamide]	260		1200
